Results on two compounds are retold here after ChEMBL document CHEMBL6182895, “Synthesis, in vitro and in vivo evaluation, and computational modeling analysis of thioxothiazolidine derivatives as highly potent and selective α-amylase inhibitors” (Eur J Med Chem, 2025).

Active and inactive are the calls of the source. The calls are words filed in the database; no cut-off is given here.

Experiment [1] can be described thus: Inhibition of alpha-amylase (unknown origin) using starch as substrate preincubated for 10 mins followed by substrate addition and measured after 10 mins. Also noted: species or system Homo sapiens.
The test system of experiment [2] is Rattus norvegicus. The experiment in a line: Protection against diabetes-induced organ dysfunction in streptozotocin-induced diabetic Wistar rat model assessed as reduction in liver damage by measuring improved hepatic sinusoid congestion and healthier hepatocytes with reduced lipid droplets at 10 mg/kg, po and measured on day 14 by Hematoxylin-Eosin staining based analysis. To be noted: time 14.0 day. It counts as functional, organism-based.

For experiment [3], the species on record is Homo sapiens. The experiment can be described thus: Potency index, ratio of acarbose IC50 to test compound IC50 for inhibition of alpha-amylase (unknown origin) using starch as substrate preincubated for 10 mins followed by substrate addition and measured after 10 mins. To be noted: time 20.0 min.
For experiment [4], the system named is Rattus norvegicus. The experiment can be described thus: Antidiabetic activity against streptozotocin-induced diabetic Wistar rat model assessed as blood glucose level at 10 mg/kg, po and measured on day 14 (reference value: 388.3 +/-6.34 mg/dl). It counts as functional. To be noted: time 14 day.
Experiment [5] relates to Rattus norvegicus. The experiment can be described thus: Protection against diabetes-induced organ dysfunction in streptozotocin-induced diabetic Wistar rat model assessed as reduction in pancreas damage by measuring well preserved islet structure at 10 mg/kg, po and measured on day 14 by Hematoxylin-Eosin staining based analysis. It counts as functional, organism-based. To be noted: time 14.0 day.

Experiment [6] deals with Rattus norvegicus. The experiment can be described thus: Antidiabetic activity against streptozotocin-induced diabetic Wistar rat model assessed as blood glucose level at 10 mg/kg, po and measured on day 7 (reference value: 378.8 +/-6.48 mg/dl). To be noted: time 7 day. It counts as functional.
Experiment [7] deals with Rattus norvegicus. The experiment in a line: Antidiabetic activity against streptozotocin-induced diabetic Wistar rat model assessed as restoration of metabolic homeostasis by measuring serum creatinine level at 10 mg/kg, po measured on day 1 to 14 (reference value: 116.81 +/-9.26 uM). It counts as functional. To be noted: time 1-14 day.
The subject of experiment [8] is Rattus norvegicus. The experiment in a line: Antidiabetic activity against streptozotocin-induced diabetic Wistar rat model assessed as restoration of metabolic homeostasis by measuring decrease in […] level in serum at 10 mg/kg, po measured on day 1 to 14. Format: functional, organism-based. To be noted: time 1-14 day.
The subject of experiment [9] is Rattus norvegicus. The experiment can be described thus: Antidiabetic activity against streptozotocin-induced diabetic Wistar rat model assessed as restoration of metabolic homeostasis by measuring ALP level in serum at 10 mg/kg, po measured on day 1 to 14 (reference value: 195.13 +/-1.08 IU/L). Format: functional. The following applies: time 1-14 day.
The species named for experiment [10] is Homo sapiens. The experiment can be described thus: Inhibition of alpha-glucosidase (unknown origin) using p-NPG as substrate preincubated for 5 mins followed by substrate addition and measured after 30 mins relative to control. Also noted: concentration or dose not given beside the values. The following applies: time 35.0 min.
In experiment [11] the test system is Rattus norvegicus. The experiment can be described thus: Protection against diabetes-induced organ dysfunction in streptozotocin-induced diabetic Wistar rat model assessed as reduction in kidney damage by measuring kidney with structural improvement and reduced retraction, preserved glomeruli and less hemorrhages at 10 mg/kg, po and measured on day 14 by Hematoxylin-Eosin staining based analysis. It counts as functional, organism-based. To be noted: time 14.0 day.

Experiment [12] concerns Rattus norvegicus. The experiment in a line: Antidiabetic activity against streptozotocin-induced diabetic Wistar rat model assessed as restoration of metabolic homeostasis by measuring AST level in serum at 10 mg/kg, po measured on day 1 to 14 (reference value: 133.49 +/-2.52 IU/L). It counts as functional. The following applies: time 1-14 day.
For experiment [13], the system named is Rattus norvegicus. The experiment can be described thus: Antidiabetic activity against streptozotocin-induced diabetic Wistar rat model assessed as restoration of metabolic homeostasis by measuring ALT level in serum at 10 mg/kg, po measured on day 1 to 14 (reference value: 35.2 +/-1.58 IU/L). Format: functional. The following applies: time 1-14 day.
Experiment [14] is filed under the species Homo sapiens. The experiment in a line: Inhibition of alpha-amylase (unknown origin) using starch as substrate preincubated for 10 mins followed by substrate addition and measured after 10 mins relative to control. Also noted: concentration or dose not given beside the values. The following applies: time 20.0 min.
The species entered for experiment [15] is Homo sapiens. The experiment can be described thus: Mixed type of inhibition of alpha-amylase (unknown origin) assessed as change in Km and Vmax of substrate using starch as substrate and measured after 10 mins by Lineweaver-burk plot analysis.
Experiment [16] relates to Rattus norvegicus. The experiment can be described thus: Antidiabetic activity against streptozotocin-induced diabetic Wistar rat model assessed as blood glucose level at 10 mg/kg, po and measured on day 1 (reference value: 324.7 +/-6.24 mg/dl). Format: functional. The following applies: time 1 day.
Experiment [17] concerns Rattus norvegicus. The experiment in a line: Antidiabetic activity against streptozotocin-induced diabetic Wistar rat model assessed as restoration of metabolic homeostasis by measuring serum urea level at 10 mg/kg, po measured on day 1 to 14 (reference value: 124.68 +/-2.16 mg/dl). It counts as functional. To be noted: time 1-14 day.
The test system of experiment [18] is Rattus norvegicus. The experiment can be described thus: Antidiabetic activity against streptozotocin-induced diabetic Wistar rat model assessed as restoration of metabolic homeostasis by measuring AST level in serum at 50 mg/kg, po measured on day 1 to 14 (reference value: 133.49 +/-2.52 IU/L). It counts as functional. The following applies: time 1-14 day.

Experiment [19] concerns Rattus norvegicus. The experiment can be described thus: Protection against diabetes-induced organ dysfunction in streptozotocin-induced diabetic Wistar rat model assessed as reduction in kidney damage by measuring kidney with less severe retraction and swelling with measurable hemorrhages in renal tubules and glomeruli at 50 mg/kg, po and measured on day 14 by Hematoxylin-Eosin staining based analysis. Format: functional, organism-based. To be noted: time 14.0 day.

Experiment [20] concerns Rattus norvegicus. The experiment can be described thus: Antidiabetic activity against streptozotocin-induced diabetic Wistar rat model assessed as blood glucose level at 50 mg/kg, po and measured on day 14 (reference value: 388.3 +/-6.34 mg/dl). Format: functional. The following applies: time 14 day.
The nature of experiment [21]: Inhibition of porcine pancreatic alpha-amylase using starch as substrate preincubated for 10 mins followed by substrate addition and measured after 30 mins. Also noted: species or system Sus scrofa.
Experiment [22] concerns Rattus norvegicus. The experiment in a line: Antidiabetic activity against streptozotocin-induced diabetic Wistar rat model assessed as restoration of metabolic homeostasis by measuring serum creatinine level at 50 mg/kg, po measured on day 1 to 14 (reference value: 116.81 +/-9.26 uM). Format: functional. To be noted: time 1-14 day.
Experiment [23] deals with Rattus norvegicus. The experiment in a line: Protection against diabetes-induced organ dysfunction in streptozotocin-induced diabetic Wistar rat model assessed as reduction in liver damage by measuring fewer congestive blood vessels, reduced hepatocyte ballooning with fewer lipid droplets at 50 mg/kg, po and measured on day 14 by Hematoxylin-Eosin staining based analysis. To be noted: time 14.0 day. Format: functional, organism-based.

The test system of experiment [24] is Rattus norvegicus. The experiment in a line: Antidiabetic activity against streptozotocin-induced diabetic Wistar rat model assessed as restoration of metabolic homeostasis by measuring ALP level in serum at 50 mg/kg, po measured on day 1 to 14 (reference value: 195.13 +/-1.08 IU/L). Format: functional. The following applies: time 1-14 day.
The nature of experiment [25]: Inhibition of porcine pancreatic alpha-amylase using starch as substrate preincubated for 10 mins followed by substrate addition and measured after 5 mins. More on the design: species or system Sus scrofa.
The test system of experiment [26] is Rattus norvegicus. The experiment in a line: Antidiabetic activity against streptozotocin-induced diabetic Wistar rat model assessed as restoration of metabolic homeostasis by measuring ALT level in serum at 50 mg/kg, po measured on day 1 to 14 (reference value: 35.2 +/-1.58 IU/L). It counts as functional. The following applies: time 1-14 day.
In experiment [27] the test system is Rattus norvegicus. The experiment in a line: Antidiabetic activity against streptozotocin-induced diabetic Wistar rat model assessed as restoration of metabolic homeostasis by measuring decrease in […] level in serum at 50 mg/kg, po measured on day 1 to 14. Format: functional, organism-based. To be noted: time 1-14 day.
Experiment [28] concerns Rattus norvegicus. The experiment in a line: Antidiabetic activity against streptozotocin-induced diabetic Wistar rat model assessed as blood glucose level at 50 mg/kg, po and measured on day 1 (reference value: 324.7 +/-6.24 mg/dl). Format: functional. The following applies: time 1 day.
For experiment [29], the system named is Rattus norvegicus. The experiment can be described thus: Antidiabetic activity against streptozotocin-induced diabetic Wistar rat model assessed as restoration of metabolic homeostasis by measuring serum urea level at 50 mg/kg, po measured on day 1 to 14 (reference value: 124.68 +/-2.16 mg/dl). To be noted: time 1-14 day. It counts as functional.
The subject of experiment [30] is Rattus norvegicus. The experiment can be described thus: Antidiabetic activity against streptozotocin-induced diabetic Wistar rat model assessed as blood glucose level at 50 mg/kg, po and measured on day 7 (reference value: 378.8 +/-6.48 mg/dl). Format: functional. To be noted: time 7 day.
Experiment [31] is described as follows: Inhibition of alpha-amylase (unknown origin). Also noted: species or system Homo sapiens.
A short description of experiment [32]: Inhibition of alpha-amylase (unknown origin) using starch as substrate measured after 30 mins. Also noted: species or system Homo sapiens.
In experiment [33] the test system is Rattus norvegicus. The experiment can be described thus: Protection against diabetes-induced organ dysfunction in streptozotocin-induced diabetic Wistar rat model assessed as reduction in pancreas damage by measuring visible improvement in islet structure with noticeable signs of atrophy remained at 50 mg/kg, po and measured on day 14 by Hematoxylin-Eosin staining based analysis. It counts as functional, organism-based. To be noted: time 14.0 day.

As a reminder, the IC50 is the concentration that inhibits the measured activity by half. One may read the inhibition as the percentage by which the read-out fell short of the control.

As for `Cn1ccnc1/C=C1\SC(=S)N(CC(=O)Nc2ccc(C(F)(F)F)cc2)C1=O`, in experiment [1], the midpoint of inhibition, the IC50, lay at 0.71 µM. Also, the result in experiment [2], in experiment [5], in experiment [8] and in [11] was Active. Moreover, the Ratio IC50 in experiment [3] was 1340. For the same compound, the Activity in experiment [4] came to 106.2 mg/dL; in [6], 149.7 mg/dL; in experiment [7], 82.14 µM; in [9] it was 138.41 IU/L; in experiment [12], 41.13 IU/L; in [13] it was 12.04 IU/L. The Activity in [16] turned out to be 328.3 mg/dL; in experiment [17] it was 57.31 mg/dL. Moreover, the inhibition in experiment [10] came out at 6.43%; in experiment [14], 80.4%. In addition, the inhibition entry in [15] was “Active”.

Take `C[C@H]1O[C@H](O[C@H]2[C@H](O)[C@@H](O)[C@@H](O[C@H]3[C@H](O)[C@@H](O)C(O)O[C@@H]3CO)O[C@@H]2CO)[C@H](O)[C@@H](O)[C@@H]1N[C@H]1C=C(CO)[C@@H](O)[C@H](O)[C@H]1O` (some centres not stated) [ACARBOSE]: the Activity in experiment [18] stood at 48.87 IU/L; in [20], 119.7 mg/dL; in experiment [22], 80.21 µM; in experiment [24], 145.34 IU/L; in experiment [26], 12.14 IU/L; in [28], 315.8 mg/dL. For the same compound, the Activity was 55.28 mg/dL in experiment [29] and 170.6 mg/dL in experiment [30]. In addition, the IC50 stood at 951 µM in experiment [1]; 104 µM in experiment [21]; 1.56 µM in [25]; 1.06 µM in experiment [31]; 0.0125 µM in experiment [32]. Further, the result in experiment [19], in experiment [23], in experiment [27] and in [33] was Active. For the same compound, the inhibition in [10] is 76.4%; in experiment [14], 81.2%. In addition, in experiment [15], the inhibition result was “Active”.
